US20230172867A1, “A METHOD FOR TREATING CANCER WITH AN ORAL DOSAGE FORM OF AN FGFR4 INHIBITOR” (Eisai R&D Management Co., Ltd., priority 2020, published 2023)
Values joined by “and” are separate entries in the source; they are usually repeats but may differ in a detail not shown here. Identical values can stand only once.

Test system: patients with HCC
Assay: Tumor response / efficacy in patients with HCC (RECIST 1.1/modified RECIST), trial NCT02834780
Assay type: in vivo, human
Details: for Clinical Benefit Rate (CBR)(CR+PR+Durable SD): durable SD = stable disease ≥ 17 weeks; for clinical benefit rate / confirmed ORR: 55 HCC patients with ≥ 2 prior lines of therapy; for clinical benefit rate (complete response + partial response + durable stable disease) / confirmed overall response rate (ORR): 90 patients with HCC; for median OS / median PFS: HCC patients with ≥ 2 prior lines of therapy; for median overall survival (OS) / median progression-free survival (PFS): all HCC patients
Source text: A description of the first in human clinical trial for H3B-6527 can be found at the ClinicalTrials.gov by searching for trial identifier NCT02834780. In summary, the trial included a study population having the following characteristics: Adult patients ≥18 years old with advanced HCC or ICC; Progression after at least one prior therapy; ECOG score of 0 or 1; Well compensated liver function; FGF19-positive (dose expansion phase only); Excluded if patients have significant active infections [except hepatitis B virus (HBV) and hepatitis C virus (HCV)], gastric or esophageal varices, or previous FGF19-FGFR4 targeted therapy.
Drug Administration and Dosage for Dose Escalation: H3B-6527 was administered orally QD or BID on a 21-day cycle. Dose escalation followed a standard 3+3 cohort design with the dose cohorts of 300, 600, 1000, and 1400 mg QD fasting or 500 and 700 mg BID fed. Patients in dose escalation phase were treated regardless of FGF19 status. Response determined by RECIST 1.1/modified RECIST every 6 weeks

[1] = Expansion 1000 mg QD Fasted (N=10)

C=CC(=O)Nc1cc(N2CCN(CC)CC2)ccc1Nc1cc(N(C)C(=O)Nc2c(Cl)c(OC)cc(OC)c2Cl)ncn1 [H3B-6527, N-(2-((6-(3-(2,6-dichloro-3,5-dimethoxyphenyl)-1-methylureido)pyrimidin-4-yl)amino)-5-(4-ethylpiperazin-1-yl)phenyl)acrylamide]
Best Overall Response: Complete Response (CR) (300 mg QD Fasted (N=3)): 0 (0.0) n (%) | Best Overall Response: Not Evaluable (300 mg QD Fasted (N=3)): 0 (0.0) n (%) | Best Overall Response: Partial Response (PR) (300 mg QD Fasted (N=3)): 0 (0.0) n (%) | Best Overall Response: Progressive Disease (PD) (300 mg QD Fasted (N=3)): 0 (0.0) n (%) | Best Overall Response: Unknown (300 mg QD Fasted (N=3)): 0 (0.0) n (%) | Objective Response Rate (CR+PR) (300 mg QD Fasted (N=3)): 0 (0.0) n (%) | Clinical Benefit Rate (CBR)(CR+PR+Durable SD) (300 mg QD Fasted (N=3)): 1 (33.3) n (%) | Best Overall Response: Complete Response (CR) (600 mg QD Fasted (N=3)): 0 (0.0) n (%) | Best Overall Response: Not Evaluable (600 mg QD Fasted (N=3)): 0 (0.0) n (%) | Best Overall Response: Partial Response (PR) (600 mg QD Fasted (N=3)): 0 (0.0) n (%) | Best Overall Response: Progressive Disease (PD) (600 mg QD Fasted (N=3)): 1 (33.3) n (%) | Best Overall Response: Unknown (600 mg QD Fasted (N=3)): 0 (0.0) n (%) | Objective Response Rate (CR+PR) (600 mg QD Fasted (N=3)): 0 (0.0) n (%) | Clinical Benefit Rate (CBR)(CR+PR+Durable SD) (600 mg QD Fasted (N=3)): 2 (66.7) n (%) | Best Overall Response: Complete Response (CR) (1000 mg QD Fasted (N=7)): 0 (0.0) n (%) | Best Overall Response: Not Evaluable (1000 mg QD Fasted (N=7)): 0 (0.0) n (%) | Best Overall Response: Partial Response (PR) (1000 mg QD Fasted (N=7)): 1 (14.3) n (%) | Best Overall Response: Progressive Disease (PD) (1000 mg QD Fasted (N=7)): 0 (0.0) n (%) | Best Overall Response: Unknown (1000 mg QD Fasted (N=7)): 0 (0.0) n (%) | Objective Response Rate (CR+PR) (1000 mg QD Fasted (N=7)): 1 (14.3) n (%) | Clinical Benefit Rate (CBR)(CR+PR+Durable SD) (1000 mg QD Fasted (N=7)): 5 (71.4) n (%) | Best Overall Response: Complete Response (CR) (1400 mg QD Fasted (N=4)): 0 (0.0) n (%) | Best Overall Response: Not Evaluable (1400 mg QD Fasted (N=4)): 0 (0.0) n (%) | Best Overall Response: Partial Response (PR) (1400 mg QD Fasted (N=4)): 1 (25.0) n (%) | Best Overall Response: Progressive Disease (PD) (1400 mg QD Fasted (N=4)): 0 (0.0) n (%) | Best Overall Response: Unknown (1400 mg QD Fasted (N=4)): 0 (0.0) n (%) | Objective Response Rate (CR+PR) (1400 mg QD Fasted (N=4)): 1 (25.0) n (%) | Clinical Benefit Rate (CBR)(CR+PR+Durable SD) (1400 mg QD Fasted (N=4)): 3 (75.0) n (%) | clinical benefit rate (BID group): 25.8% | confirmed ORR (BID group): 0% | clinical benefit rate (complete response + partial response + durable stable disease) (BID group): 38% | confirmed overall response rate (ORR) (BID group): 0% | median OS (BID group): 7.3 months | median PFS (BID group): 2.8 months | median overall survival (OS) (BID group): 8.0 months | median progression-free survival (PFS) (BID group): 3.4 months | Best Overall Response: Complete Response (CR) [1]: 0 (0.0) n (%) | Best Overall Response: Not Evaluable [1]: 0 (0.0) n (%) | Best Overall Response: Partial Response (PR) [1]: 0 (0.0) n (%) | Best Overall Response: Progressive Disease (PD) [1]: 1 (10.0) n (%) | Best Overall Response: Unknown [1]: 3 (30.0) n (%) | Objective Response Rate (CR+PR) [1]: 0 (0.0) n (%) | Clinical Benefit Rate (CBR)(CR+PR+Durable SD) [1]: 2 (20.0) n (%) | clinical benefit rate (QD group): 45.8% | confirmed ORR (QD group): 12.5% | clinical benefit rate (complete response + partial response + durable stable disease) (QD group): 52% | confirmed overall response rate (ORR) (QD group): 8.3% | median OS (QD group): 10.6 months | median PFS (QD group): 4.1 months | median overall survival (OS) (QD group): 11.1 months | median progression-free survival (PFS) (QD group): 4.1 months | Best Overall Response: Complete Response (CR) (Total (N=27), QD fasted): 0 (0.0) n (%) | Best Overall Response: Not Evaluable (Total (N=27), QD fasted): 0 (0.0) n (%) | Best Overall Response: Partial Response (PR) (Total (N=27), QD fasted): 2 (7.4%) n (%) and 2 (7.4) n (%) | Best Overall Response: Progressive Disease (PD) (Total (N=27), QD fasted): 2 (7.4) n (%) | Best Overall Response: Unknown (Total (N=27), QD fasted): 3 (11.1) n (%) | Objective Response Rate (CR+PR) (Total (N=27), QD fasted): 2 (7.4) n (%) | Clinical Benefit Rate (CBR)(CR+PR+Durable SD) (Total (N=27), QD fasted): 13 (48.1) n (%)
